The values below are quoted from earlier work in patent US20050255150A1 (priority 2004, published 2005).

For this data set the following is noted: in vivo.

Consider `CN1CC[C@]23c4c5ccc(O)c4O[C@H]2[C@@H](O)C=C[C@H]3[C@H]1C5` [Morphine], for which the “Intramuscular Administration equivalent of 10 mg of intramuscular morphine in 24 hours” value (shortened to “Intramuscular Administration equivalent”) is listed as 10 mg. Also, where the note is “po”, the “Oral Administration equivalent of 10 mg morphine in 24 hours” value is given as 60 (30 mg) and the “Oral Administration equivalent of 10 mg morphine in 24 hours (value in brackets)” value is recorded as 60 (30 mg).
`CC(=O)Oc1ccc2c3c1O[C@H]1[C@@H](OC(C)=O)C=C[C@H]4[C@@H](C2)N(C)CC[C@@]341` [Heroin]: the “Intramuscular Administration equivalent” value was 5 mg. Under “po”, the “Oral Administration equivalent of 10 mg morphine in 24 hours” value was 60 mg.
With `COc1ccc2c3c1O[C@H]1[C@@H](O)C=C[C@H]4[C@@H](C2)N(C)CC[C@@]341` [Codeine], the “Intramuscular Administration equivalent” value is reported as 130 mg. For the same compound, the “Oral Administration equivalent of 10 mg morphine in 24 hours” value (po) is listed as 200 mg.
Consider `CCC(=O)C(CC(C)N(C)C)(c1ccccc1)c1ccccc1` (centres unmarked) [Methadone], for which the “Intramuscular Administration equivalent” value is 10 mg. In addition, the “Oral Administration equivalent of 10 mg morphine in 24 hours” value (po) was 20 mg.
For `CCOC(=O)C1(c2ccccc2)CCN(C)CC1` [Meperidine], the “Intramuscular Administration equivalent” value is given as 75 mg.
For the compound `COc1ccc2c3c1O[C@H]1C(=O)CC[C@@]4(O)[C@@H](C2)N(C)CC[C@]314` [Oxycodone], the “Intramuscular Administration equivalent” value was 15 mg. Under “po”, the “Oral Administration equivalent of 10 mg morphine in 24 hours” value is reported as 30 mg.
In the case of `CN1CC[C@]23c4c5ccc(O)c4O[C@H]2C(=O)CC[C@@]3(O)[C@H]1C5` [Oxymorphone], the “Intramuscular Administration equivalent” value was 1 mg. In addition, the “Oral Administration equivalent of 10 mg morphine in 24 hours” value (po) is listed as 10 mg.
